For five compounds, Activity results are on record in ChEMBL document CHEMBL1949616, “Synthesis and human telomeric G-quadruplex DNA-binding activity of glucosaminosides of shikonin/alkannin” (Bioorg Med Chem Lett, 2012).

Calls of active or inactive are those of the source. The calls are words filed in the database; no cut-off is given here.

What all share (type): nucleic-acid assay
In experiment [1] the test system is Nucleic Acid. As to the kind of experiment: Binding affinity to human telomeric G-quadruplex DNA at 200 uM after 1 hr by ESI-TOF-MS analysis.
The test system of experiment [2] is Nucleic Acid. Kind of experiment: Binding affinity to human telomeric G-quadruplex DNA assessed as hypochromic effect at 10 uM at pH 7.6 by UV-Vis spectrophotometric analysis.
Experiment [3] relates to Nucleic Acid. As to the kind of experiment: Binding affinity to human telomeric G-quadruplex DNA assessed as bathochromic shift at 10 uM at pH 7.6 by UV-Vis spectrophotometric analysis.
For experiment [4], the system named is Nucleic Acid. As to the kind of experiment: Binding affinity to human telomeric DNA AGGGTTAGGGT at 200 uM after 1 hr by ESI-TOF-MS analysis.

For `CC(C)=CC[C@H](O)C1=CC(=O)c2c(O)ccc(O)c2C1=O`, in the experiment with Nucleic Acid [1], the Activity was found to be 0%.
In the experiment with Nucleic Acid [1], `CC(=O)N[C@H]1[C@H](O[C@@H](CC=C(C)C)C2=CC(=O)c3c(O)ccc(O)c3C2=O)O[C@H](CO)[C@@H](O)[C@@H]1O` yielded an Activity of 39.3%.
In the case of `CC(=O)N[C@H]1[C@H](O[C@H](CC=C(C)C)C2=CC(=O)c3c(O)ccc(O)c3C2=O)O[C@H](CO)[C@@H](O)[C@@H]1O`, the Activity with Nucleic Acid [2] was found to be 32.8%; in the experiment on Nucleic Acid [1] it was 47%; in the experiment on Nucleic Acid [4], 16%. Besides, in the experiment on Nucleic Acid [3], the result was Active.
Turning to `COc1ccc2cc3[n+](cc2c1OC)CCc1cc2c(cc1-3)OCO2`, the Activity with Nucleic Acid [1] came out at 58.9%.
The same measure, in the same setting: next, `CC(C)=CC[C@@H](O)C1=CC(=O)c2c(O)ccc(O)c2C1=O`: 0%.
